Tests used:
cancer cells = assay: Annexin-V/PI cell death of cancer cell lines under low-serum stress; format: cell-based; conditions: 24 hours, increasing concentrations (FIG. 1)
Protocol: (§1) The indicated cell lines or blood cells from healthy donors were treated for 24 hours in a 37° C. incubator (5% CO2) with increasing concentrations of the Antp-AAC-11-LZ (377-399) before Annexin-V and PI staining. The percentages refer to Annexin-V-positive or Annexin-V-positive/PI-positive staining.
(§2) Detection of phosphatidylserine on apoptotic cells was performed by using an AnnexinV/propidium iodide (PI) detection kit (Beckman Coulter, Immunotech, Marseille, France) according to the manufacturer. Briefly, 5×10^5 cells were incubated in the dark at 4° C. with Annexin V-fluorescein isothiocyanate (FITC) and 2.5 μg/mL PI in phosphate buffer for 10 minutes before 18 000 ungated events were collected within the hour by flow cytometry (FACScalibur, BD Biosciences, Mansfield, Mass.) and analyzed with the ProCellQuest software provided by the manufacturer. In HIV-1 infection assays (see below), cell viability was determined with the help of LIVE/DEAD® Fixable Aqua stain kit as recommended by the manufacturer (Molecular Probes, Life Technologies, Saint Aubin, France).

[1] = tested on: normal cells (blood cells from healthy donors); assay: Annexin-V/PI cell death of normal cells / blood cells from healthy donors under low-serum stress; format: cell-based; conditions: 24 hours, increasing concentrations, blood cells from healthy donors (FIG. 1)
Protocol: as §1, §2

HIV-1 BaL [2] = format: cell-based; conditions: three days; for HIV-1 replication (p24 antigen in supernatants) / elimination of HIV infected CD4+ T cells: 6 μM peptide, HIV-1 BaL, CD4+ T cells (FIG. 3); for HIV-1 replication (p24 antigen in supernatants) / elimination of HIV infected human CD4+ T cells: increasing amounts of peptide, HIV-1BaL, human CD4+ T cells (FIG. 4A upper panel)
HIV-1BX08 = format: cell-based; conditions: increasing amounts of peptide, three days, primary strain HIV-1BX08, human CD4+ T cells (FIG. 4A bottom panel)
SIVmac251 = format: cell-based, SIVmac; conditions: increasing amounts of peptide, three days, macaque CD4+ T cells (FIG. 4B)
VSV-G HIV-1-particles = format: cell-based
HIV-1 BaL [3] = format: cell-based; conditions: 4 or 8 μM; added 10 minutes before infection and washed after two hours, or added two hours after infection and kept three days (FIG. 6)

Ac-RQIKIWFKKQNRRMKWKKLQYFARGLQVYIRQLRLALQGKT-NH2 [RT39]
cell death (Annexin-V-positive or Annexin-V-positive/PI-positive staining) of cancer cells (cancer cells): induced cancer cells
cell death (Annexin-V-positive or Annexin-V-positive/PI-positive staining) of normal cells [1]: but not normal cells
HIV-1 replication (p24 antigen in supernatants) / elimination of HIV infected CD4+ T cells (HIV-1 BaL [2]): induce the selective elimination
HIV-1 replication (p24 antigen in supernatants) / elimination of HIV infected human CD4+ T cells (HIV-1 BaL [2]): induce the selective elimination
HIV-1 replication (p24 antigen in supernatants) / elimination of HIV infected human CD4+ T cells (HIV-1BX08): induce the selective elimination
SIVmac251 replication (p27 antigen in supernatants) / elimination of SIVmac infected macaque CD4+ T cells (SIVmac251): induce the selective elimination
percentage of GFP+ (infected) cells and of viable cells / elimination of HIV infected CD4+ T cells (VSV-G HIV-1-particles): induce the selective elimination

RQIKIWFKKQNRRMKWKKYFARGLQVYIRQL (Synthetic Antp-AAC-11-LZ (379-391) (RL29))
HIV-1 replication (p24 antigen in supernatants) / elimination of HIV infected CD4+ T cells (HIV-1 BaL [2]): induce the selective elimination

RQIKIWFKKQNRRMKWKKAKLNAEKLKDFKIRLQYFARGLQVYIRQLRLALQGKT (Synthetic Antp-AAC-11-LZ (363-399) (RT53))
HIV-1 replication (p24 antigen in supernatants) / elimination of HIV infected CD4+ T cells (HIV-1 BaL [2]): induce the selective elimination
HIV-1 replication (p24 antigen in supernatants) / elimination of HIV infected human CD4+ T cells (HIV-1 BaL [2]): induce the selective elimination
HIV-1 replication (p24 antigen in supernatants) / elimination of HIV infected human CD4+ T cells (HIV-1BX08): induce the selective elimination
SIVmac251 replication (p27 antigen in supernatants) / elimination of SIVmac infected macaque CD4+ T cells (SIVmac251): induce the selective elimination
percentage of GFP+ (infected) cells and of viable cells / elimination of HIV infected CD4+ T cells (VSV-G HIV-1-particles): induce the selective elimination
HIV-1 infection of human macrophages (HIV-1 BaL [3]): block HIV-1 infection in human macrophages

From US10463713B2, “Use of AAC-11 inhibitors for the treatment of viral infection” (INSERM (Institut National de la Sante et de la Recherche …, priority 2016, dated 2019)
